In PubChem BioAssay (NCI):
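Step 1: Grow cells in 96-well plates. Step 2: Expose to compound for 48 hours at 5 concentrations. Step 3: Interpolate endpoints linearly; if unreached, use highest concentration. GI50 is the concentration that inhibits growth by half. TGI marks complete inhibition of growth.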

What was measured:
Experiment in all cases: growth of human tumour cells (NCI), 48 h
TK-10 renal = test system: TK-10 renal
SNB-19 CNS = test system: SNB-19 CNS
A498 renal = test system: A498 renal
SK-MEL-5 melanoma = test system: SK-MEL-5 melanoma
HOP-62 NSCLC = test system: HOP-62 NSCLC
SF-295 CNS = test system: SF-295 CNS
NCI-H226 lung = test system: NCI-H226 lung
A549 NSCLC = test system: A549 NSCLC
OVCAR-5 ovarian = test system: OVCAR-5 ovarian
SNB-75 CNS = test system: SNB-75 CNS
NCI/ADR-RES ovarian = test system: NCI/ADR-RES ovarian
ACHN renal = test system: ACHN renal
UO-31 renal = test system: UO-31 renal
SF-268 CNS = test system: SF-268 CNS
SK-OV-3 ovarian = test system: SK-OV-3 ovarian
NCI-H460 lung = test system: NCI-H460 lung
SK-MEL-28 melanoma = test system: SK-MEL-28 melanoma
OVCAR-8 ovarian = test system: OVCAR-8 ovarian
HCC-2998 colon = test system: HCC-2998 colon
HOP-92 NSCLC = test system: HOP-92 NSCLC
MOLT-4 leukemia = test system: MOLT-4 leukemia
RPMI-8226 leukemia = test system: RPMI-8226 leukemia
SF-539 CNS = test system: SF-539 CNS
HT29 colon = test system: HT29 colon
MCF7 breast = test system: MCF7 breast
SW-620 colon = test system: SW-620 colon
MALME-3M melanoma = test system: MALME-3M melanoma
HS 578T breast = test system: HS 578T breast
UACC-257 melanoma = test system: UACC-257 melanoma
IGROV1 ovarian = test system: IGROV1 ovarian
M14 melanoma = test system: M14 melanoma
CCRF-CEM leukemia = test system: CCRF-CEM leukemia
U251 CNS = test system: U251 CNS
K-562 leukemia = test system: K-562 leukemia
OVCAR-4 ovarian = test system: OVCAR-4 ovarian
OVCAR-3 ovarian = test system: OVCAR-3 ovarian
COLO 205 colon = test system: COLO 205 colon
MDA-MB-231 breast = test system: MDA-MB-231 breast
MDA-MB-435 = test system: MDA-MB-435
LOX IMVI melanoma = test system: LOX IMVI melanoma
HL-60(TB) leukemia = test system: HL-60(TB) leukemia
EKVX NSCLC = test system: EKVX NSCLC
SN12C renal = test system: SN12C renal
HCT-15 colon = test system: HCT-15 colon
RXF 393 renal = test system: RXF 393 renal
DU-145 prostate = test system: DU-145 prostate
PC-3 prostate = test system: PC-3 prostate
UACC-62 melanoma = test system: UACC-62 melanoma
HCT-116 colon = test system: HCT-116 colon
T-47D breast = test system: T-47D breast
NCI-H522 lung = test system: NCI-H522 lung
KM12 colon = test system: KM12 colon
BT-549 breast = test system: BT-549 breast
786-0 renal = test system: 786-0 renal
SK-MEL-2 melanoma = test system: SK-MEL-2 melanoma

`CN1CCN(c2ccc(N3Cc4ccccc4OC4=C3C(=O)c3c(O)ccc(O)c3C4=O)cn2)CC1` showed a GI50 (TK-10 renal) of 260 nM, a TGI (TK-10 renal) of 825 nM and a GI50 (SNB-19 CNS) of 742 nM. For the same molecule, the TGI (SNB-19 CNS) was 2570 nM, the GI50 (A498 renal) was 2150 nM and the TGI (A498 renal) was 4940 nM. The GI50 (SK-MEL-5 melanoma) was 1270 nM, the TGI (SK-MEL-5 melanoma) was 2750 nM and the GI50 (HOP-62 NSCLC) was 1550 nM. The TGI (HOP-62 NSCLC) was 4880 nM, the GI50 (SF-295 CNS) was 1870 nM and the TGI (SF-295 CNS) was 5000 nM. It also gave a GI50 (NCI-H226 lung) of 2260 nM, a TGI (NCI-H226 lung) of 12000 nM and a GI50 (A549 NSCLC) of 2180 nM. The TGI (A549 NSCLC) was 6730 nM, the GI50 (OVCAR-5 ovarian) was 692 nM and the TGI (OVCAR-5 ovarian) was 1950 nM. It also gave a GI50 (SNB-75 CNS) of 907 nM, a TGI (SNB-75 CNS) of 5400 nM and a GI50 (NCI/ADR-RES ovarian) of 403 nM. It also gave a TGI (NCI/ADR-RES ovarian) of over 100000 nM, a GI50 (ACHN renal) of 57.4 nM and a TGI (ACHN renal) of 203 nM. The GI50 (UO-31 renal) was 163 nM, the TGI (UO-31 renal) was 557 nM and the GI50 (SF-268 CNS) was 580 nM. For the same molecule, the TGI (SF-268 CNS) was 2430 nM, the GI50 (SK-OV-3 ovarian) was 2920 nM and the TGI (SK-OV-3 ovarian) was 11400 nM. For the same molecule, the GI50 (NCI-H460 lung) was 1170 nM, the TGI (NCI-H460 lung) was 3830 nM and the GI50 (SK-MEL-28 melanoma) was 282 nM. The TGI (SK-MEL-28 melanoma) was 762 nM, the GI50 (OVCAR-8 ovarian) was 370 nM and the TGI (OVCAR-8 ovarian) was 4570 nM. It also gave a GI50 (HCC-2998 colon) of 1280 nM, a TGI (HCC-2998 colon) of 2780 nM and a GI50 (HOP-92 NSCLC) of 230 nM. It also gave a TGI (HOP-92 NSCLC) of 499 nM, a GI50 (MOLT-4 leukemia) of 89.5 nM and a TGI (MOLT-4 leukemia) of 5380 nM. For the same molecule, the GI50 (RPMI-8226 leukemia) was 260 nM, the TGI (RPMI-8226 leukemia) was 901 nM and the GI50 (SF-539 CNS) was 233 nM. For the same molecule, the TGI (SF-539 CNS) was 595 nM, the GI50 (HT29 colon) was 209 nM and the TGI (HT29 colon) was 562 nM. The GI50 (MCF7 breast) was 149 nM, the TGI (MCF7 breast) was 585 nM and the GI50 (SW-620 colon) was 196 nM. For the same molecule, the TGI (SW-620 colon) was 635 nM, the GI50 (MALME-3M melanoma) was 89.3 nM and the TGI (MALME-3M melanoma) was 298 nM. For the same molecule, the GI50 (HS 578T breast) was 876 nM, the TGI (HS 578T breast) was over 100000 nM and the GI50 (UACC-257 melanoma) was 426 nM. For the same molecule, the TGI (UACC-257 melanoma) was 1170 nM, the GI50 (IGROV1 ovarian) was 272 nM and the TGI (IGROV1 ovarian) was 1010 nM. It also gave a GI50 (M14 melanoma) of 244 nM, a TGI (M14 melanoma) of 651 nM and a GI50 (CCRF-CEM leukemia) of 97.2 nM. The TGI (CCRF-CEM leukemia) was over 33500 nM, the GI50 (U251 CNS) was 397 nM and the TGI (U251 CNS) was 1590 nM. It also gave a GI50 (K-562 leukemia) of 71.3 nM, a TGI (K-562 leukemia) of 2530 nM and a GI50 (OVCAR-4 ovarian) of 264 nM. The TGI (OVCAR-4 ovarian) was 855 nM, the GI50 (OVCAR-3 ovarian) was 167 nM and the TGI (OVCAR-3 ovarian) was 469 nM. For the same molecule, the GI50 (COLO 205 colon) was 126 nM, the TGI (COLO 205 colon) was 302 nM and the GI50 (MDA-MB-231 breast) was 275 nM. For the same molecule, the TGI (MDA-MB-231 breast) was 706 nM, the GI50 (MDA-MB-435) was 234 nM and the TGI (MDA-MB-435) was 575 nM. For the same molecule, the GI50 (LOX IMVI melanoma) was 215 nM, the TGI (LOX IMVI melanoma) was 618 nM and the GI50 (HL-60(TB) leukemia) was 135 nM. The TGI (HL-60(TB) leukemia) was 445 nM, the GI50 (EKVX NSCLC) was 244 nM and the TGI (EKVX NSCLC) was 1240 nM. For the same molecule, the GI50 (SN12C renal) was 316 nM, the TGI (SN12C renal) was 1100 nM and the GI50 (HCT-15 colon) was 186 nM. For the same molecule, the TGI (HCT-15 colon) was 638 nM, the GI50 (RXF 393 renal) was 164 nM and the TGI (RXF 393 renal) was 346 nM. It also gave a GI50 (DU-145 prostate) of 360 nM, a TGI (DU-145 prostate) of 1290 nM and a GI50 (PC-3 prostate) of 385 nM. The TGI (PC-3 prostate) was 1630 nM, the GI50 (UACC-62 melanoma) was 330 nM and the TGI (UACC-62 melanoma) was 1040 nM. The GI50 (HCT-116 colon) was 113 nM, the TGI (HCT-116 colon) was 326 nM and the GI50 (T-47D breast) was 184 nM. The TGI (T-47D breast) was 706 nM, the GI50 (NCI-H522 lung) was 32.2 nM and the TGI (NCI-H522 lung) was 134 nM. For the same molecule, the GI50 (KM12 colon) was 1180 nM, the TGI (KM12 colon) was 3600 nM and the GI50 (BT-549 breast) was 251 nM. It also gave a TGI (BT-549 breast) of 723 nM, a GI50 (786-0 renal) of 191 nM and a TGI (786-0 renal) of 404 nM. The GI50 (SK-MEL-2 melanoma) was 738 nM and the TGI (SK-MEL-2 melanoma) was 2230 nM.
